Assay [1] addresses T1, human FPR2 (Homo sapiens, UniProt P25090).
T1 sequence (P25090 1-351): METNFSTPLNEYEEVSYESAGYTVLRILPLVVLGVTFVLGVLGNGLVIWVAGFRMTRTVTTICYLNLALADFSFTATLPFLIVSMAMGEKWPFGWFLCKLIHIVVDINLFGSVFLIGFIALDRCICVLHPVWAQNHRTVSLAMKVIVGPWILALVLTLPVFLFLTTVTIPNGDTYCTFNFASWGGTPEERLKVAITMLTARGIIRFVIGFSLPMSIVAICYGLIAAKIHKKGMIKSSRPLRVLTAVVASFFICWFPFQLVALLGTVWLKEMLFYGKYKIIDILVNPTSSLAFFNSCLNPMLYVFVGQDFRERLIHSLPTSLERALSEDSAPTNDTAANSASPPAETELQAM
As to the kind of experiment: FPR2 cyclic adenosine monophosphate (cAMP) assay. It counts as cell-based. Conditions: CHO cells overexpressing human FPR2; forskolin 5 μM; inhibition of cAMP production; HTRF; read-out: hFPR2 cAMP2 EC50. The method, boiled down:
(§1)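 CHO cells overexpressing human FPR1 (4,000/well) or FPR2 (2,000/well) were incubated 30 min at room temperature with compound (0.020 nM to 100 μM, 1% DMSO), IBMX 200 μM, and forskolin at 10 μM (FPR1) or 5 μM (FPR2), all final. HTRF cAMP read-out; inhibition fitted by 4-parameter logistic equation.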

The target in assay [2] is T2, human FPR1 (Homo sapiens, UniProt P21462).
T2 sequence (P21462 1-350): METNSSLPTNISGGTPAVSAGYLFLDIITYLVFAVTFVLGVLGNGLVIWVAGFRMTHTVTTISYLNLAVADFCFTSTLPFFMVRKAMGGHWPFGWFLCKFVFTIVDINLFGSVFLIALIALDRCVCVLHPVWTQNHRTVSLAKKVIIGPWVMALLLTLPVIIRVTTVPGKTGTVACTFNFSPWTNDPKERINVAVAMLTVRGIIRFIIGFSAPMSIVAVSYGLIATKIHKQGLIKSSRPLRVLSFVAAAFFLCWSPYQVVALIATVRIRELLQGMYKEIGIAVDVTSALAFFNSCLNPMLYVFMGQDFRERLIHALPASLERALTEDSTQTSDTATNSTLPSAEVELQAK
The assay is described as follows: FPR1 cyclic adenosine monophosphate (cAMP) assay. As to conditions: CHO cells overexpressing human FPR1; forskolin 10 μM; inhibition of cAMP production; HTRF; read-out: hFPR1 cAMP2 EC50. The class given is cell-based. The method, boiled down:
as §1

pEC50: −log10 of the molar value.

One may read the pEC50 as the negative decadic logarithm of the EC50, by convention in mol/L. With `COc1cc(OCC(C)(C)F)nc(-n2c(=O)c(NC(=O)c3ccc(OC(F)F)cc3)c(-c3c(F)cc(OC)cc3F)n2C)c1` [Example 385, N-(5-(2,6-Difluoro-4-methoxyphenyl)-2-(6-(2-fluoro-2-methylpropoxy)-4-methoxypyridin-2-yl)-1-methyl-3-oxo-2,3-dihydro-1H-pyrazol-4-yl)-4-(difluoromethoxy)benzamide], the pEC50 in assay [1] was 8.52; in assay [2], < 5.00.

`COc1cc(F)c(-c2c(NC(=O)c3ccc(OC(F)F)cc3)c(=O)n(-c3cccc(Cl)c3C)n2C)c(F)c1` [Example 37, N-[2-(3-chloro-2-methylphenyl)-5-(2,6-difluoro-4-methoxyphenyl)-1-methyl-3-oxo-2,3-dihydro-1H-pyrazol-4-yl]-4-(difluoromethoxy)benzamide]: the results for the pEC50 in assay [1] and in assay [2] were 7.72 and < 5.00, respectively.

On to `COc1cc(C2CCN(CCO)CC2)nc(-n2c(=O)c(NC(=O)c3ccc(OC(F)F)cc3)c(-c3c(F)cc(OC)cc3F)n2C)c1` [Example 368, N-(5-(2,6-Difluoro-4-methoxyphenyl)-2-(6-(1-(2-hydroxyethyl)piperidin-4-yl)-4-methoxypyridin-2-yl)-1-methyl-3-oxo-2,3-dihydro-1H-pyrazol-4-yl)-4-(difluoromethoxy)benzamide], for which the figures for the negative logarithm of the EC50 (pEC50) in assay [1] and in assay [2] were 8.15 and < 5.00, respectively.

As to `COc1cc(F)c(-c2c(NC(=O)c3ccc(OC(F)F)cc3)c(=O)n(-c3cc(OC)ccc3C#N)n2C)c(F)c1` [Example 183, N-[2-(2-cyano-5-methoxyphenyl)-5-(2,6-difluoro-4-methoxyphenyl)-1-methyl-3-oxo-2,3-dihydro-1H-pyrazol-4-yl]-4-(difluoromethoxy)benzamide], the negative logarithm of the EC50 (pEC50) is 7.96 in assay [1] and 5.41 in assay [2].

Consider `COc1cc(F)c(-c2c(NC(=O)c3ccc(OC(F)F)cc3)c(=O)n(-c3cccc(-c4ccccc4)n3)n2C)c(F)c1` [Example 72, N-[5-(2,6-difluoro-4-methoxyphenyl)-1-methyl-3-oxo-2-(6-phenylpyridin-2-yl)-2,3-dihydro-1H-pyrazol-4-yl]-4-(difluoromethoxy)benzamide], for which the pEC50 in assay [1] was 8.57; in assay [2], 6.74.

In the case of `COc1cc(F)c(-c2c(NC(=O)c3ccc(OC(F)F)cc3)c(=O)n(-c3nc(N[C@@H]4CCOC4)ccc3C(F)(F)F)n2C)c(F)c1` [Example 254, N-[5-(2,6-difluoro-4-methoxyphenyl)-1-methyl-3-oxo-2-(6-{[(3R)-oxolan-3-yl]amino}-3-(trifluoromethyl)pyridin-2-yl)-2,3-dihydro-1H-pyrazol-4-yl]-4-(difluoromethoxy)benzamide], the figures for the pEC50 in assay [1] and in assay [2] were 8.40 and < 5.00, respectively.

Turning to `COc1cc(F)c(-c2c(NC(=O)c3ccc(OC(F)F)cc3)c(=O)n(-c3nc(N4CC(C)(O)C4)ccc3C#N)n2C)c(F)c1` [Example 311, N-{2-[3-cyano-6-(3-hydroxy-3-methylazetidin-1-yl)pyridin-2-yl]-5-(2,6-difluoro-4-methoxyphenyl)-1-methyl-3-oxo-2,3-dihydro-1H-pyrazol-4-yl}-4-(difluoromethoxy)benzamide], the values for the pEC50 in assay [1] and in assay [2] were 8.30 and < 5.00, respectively.

`COc1cc(OCC(O)C(F)(F)F)nc(-n2c(=O)c(NC(=O)c3ccc(OC(F)F)cc3)c(-c3c(F)cc(OC)cc3F)n2C)c1` (centres unmarked) [Example 383, N-(5-(2,6-Difluoro-4-methoxyphenyl)-2-(4-methoxy-6-(3,3,3-trifluoro-2-hydroxypropoxy)pyridin-2-yl)-1-methyl-3-oxo-2,3-dihydro-1H-pyrazol-4-yl)-4-(difluoromethoxy)benzamide]: the pEC50 in assay [1] is 9.00; in assay [2] it was 5.60.

Consider `COc1cc(-n2c(=O)c(NC(=O)c3ccc(OC(F)F)cc3)c(-c3c(F)cc(OC)cc3F)n2C)nc(C(F)(F)F)c1` [Example 162, N-[5-(2,6-difluoro-4-methoxyphenyl)-2-[4-methoxy-6-(trifluoromethyl)pyridin-2-yl]-1-methyl-3-oxo-2,3-dihydro-1H-pyrazol-4-yl]-4-(difluoromethoxy)benzamide], for which the pEC50 is 7.92 in assay [1] and < 5.00 in assay [2].

Take `COc1cc(F)c(-c2c(NC(=O)c3ccc(OC(F)F)cc3)c(=O)n(-c3nc(OC)ccc3Cl)n2C)c(F)c1` [Example 182, N-[2-(3-chloro-6-methoxypyridin-2-yl)-5-(2,6-difluoro-4-methoxyphenyl)-1-methyl-3-oxo-2,3-dihydro-1H-pyrazol-4-yl]-4-(difluoromethoxy)benzamide]: the pEC50 in assay [1] was 7.92; in assay [2], < 5.00.

Turning to `COc1cc(F)c(-c2c(NC(=O)c3ccc(OC(F)F)cc3)c(=O)n(C3CC3)n2C)c(F)c1` [Example 13, N-[2-cyclopropyl-5-(2,6-difluoro-4-methoxyphenyl)-1-methyl-3-oxo-2,3-dihydro-1H-pyrazol-4-yl]-4-(difluoromethoxy)benzamide], the figures for the pEC50 in assay [1] and in assay [2] were 7.66 and 5.62, respectively.

Consider `COc1cc(F)c(-c2c(NC(=O)c3ccc(OC(F)F)cc3)c(=O)n(-c3nc(NCC4(O)CC4)ccc3C(F)(F)F)n2C)c(F)c1` [Example 283, N-[5-(2,6-difluoro-4-methoxyphenyl)-2-(6-{[(1-hydroxycyclopropyl)methyl]amino}-3-(trifluoromethyl)pyridin-2-yl)-1-methyl-3-oxo-2,3-dihydro-1H-pyrazol-4-yl]-4-(difluoromethoxy)benzamide], for which the negative-log EC50 (pEC50) in assay [1] is 9.00; in assay [2] it was < 5.00.

For the compound `COc1cc(F)c(-c2c(NC(=O)c3ccc(OC(F)F)cc3)c(=O)n(-c3cncc(Cl)c3)n2C)c(F)c1` [Example 130, N-[2-(5-chloropyridin-3-yl)-5-(2,6-difluoro-4-methoxyphenyl)-1-methyl-3-oxo-2,3-dihydro-1H-pyrazol-4-yl]-4-(difluoromethoxy)benzamide], the pEC50 is 7.70 in assay [1] and 5.72 in assay [2].

For the compound `COc1cc(F)c(-c2c(NC(=O)c3ccc(OC(F)F)cc3)c(=O)n(-c3nc(N4CCC(C)(O)C4)ccc3C(F)(F)F)n2C)c(F)c1` (centres unmarked) [Example 282, N-[5-(2,6-difluoro-4-methoxyphenyl)-2-[6-(3-hydroxy-3-methylpyrrolidin-1-yl)-3-(trifluoromethyl)pyridin-2-yl]-1-methyl-3-oxo-2,3-dihydro-1H-pyrazol-4-yl]-4-(difluoromethoxy)benzamide], the pEC50 in assay [1] is 8.70; in assay [2], 5.68.

As for `Cn1c(-c2ccc(OC(F)F)cc2)c(NC(=O)c2ccc(OC(F)F)cc2)c(=O)n1-c1ncccc1C(F)(F)F` [Example 281, 4-(difluoromethoxy)-N-{5-[4-(difluoromethoxy)phenyl]-1-methyl-3-oxo-2-[3-(trifluoromethyl)pyridin-2-yl]-2,3-dihydro-1H-pyrazol-4-yl}benzamide], the pEC50 in assay [1] was 7.74; in assay [2], 6.30.

`COc1cc(F)c(-c2c(NC(=O)c3ccc(OC(F)F)cc3)c(=O)n(-c3nc(N4CC5(CC(O)C5)C4)ccc3Cl)n2C)c(F)c1` [Example 299, N-[2-(3-chloro-6-{6-hydroxy-2-azaspiro[3.3]heptan-2-yl}pyridin-2-yl)-5-(2,6-difluoro-4-methoxyphenyl)-1-methyl-3-oxo-2,3-dihydro-1H-pyrazol-4-yl]-4-(difluoromethoxy)benzamide]: the pEC50 in assay [1] is 8.10; in assay [2], < 5.30.

With `COc1cc(F)c(-c2c(NC(=O)c3ccc(OC(F)F)cc3)c(=O)n(-c3nc(Cl)ccc3Cl)n2C)c(F)c1` [Example 242, N-[2-(3,6-dichloropyridin-2-yl)-5-(2,6-difluoro-4-methoxyphenyl)-1-methyl-3-oxo-2,3-dihydro-1H-pyrazol-4-yl]-4-(difluoromethoxy)benzamide], the results for the negative logarithm of the EC50 (pEC50) in assay [1] and in assay [2] were 7.70 and < 5.00, respectively.

Regarding `COc1cc(C2CCN(C)CC2)nc(-n2c(=O)c(NC(=O)c3ccc(OC(F)F)cc3)c(-c3c(F)cc(OC)cc3F)n2C)c1` [Example 363, N-(5-(2,6-Difluoro-4-methoxyphenyl)-2-(4-methoxy-6-(1-methylpiperidin-4-yl)pyridin-2-yl)-1-methyl-3-oxo-2,3-dihydro-1H-pyrazol-4-yl)-4-(difluoromethoxy)benzamide], the pEC50 in assay [1] was 8.52; in assay [2] it was < 5.00.

Regarding `COc1cc(F)c(-c2c(NC(=O)c3ccc(OC(F)(F)F)cc3)c(=O)n(-c3ccc(C)cn3)n2C)c(F)c1` [Example 50, N-[5-(2,6-difluoro-4-methoxyphenyl)-1-methyl-2-(5-methylpyridin-2-yl)-3-oxo-2,3-dihydro-1H-pyrazol-4-yl]-4-(trifluoromethoxy)benzamide], the pEC50 in assay [1] was 7.74; in assay [2], 5.89.
